Source: patent US12576156B2, “Compound comprising self-immolative group and ligand-drug conjugate comprising same” (priority 2022, dated 2026)
Numbered stars: 1 amine (or outer) side, 2 acyl side, 3 side chain; on linkers, the order of the positions; unused ones are H or OH. Square brackets hold non-standard residues; d marks the D form. Peptide text beside a SMILES is read from it. * marks the point of attachment. ξ: configuration not given here. X1 = O=C(O)CCCc1cc2c(O[C@@H]3O[C@H](CO)[C@H](O)[C@H](O)[C@H]3O)ccc(COC(=O)*)c2o1; X3 = O=C(O)c1cc2c(O[C@@H]3O[C@H](CO)[C@H](O)[C@H](O)[C@H]3O)ccc(COC(=O)*)c2[se]1; X2 = O=C(O)CCc1cc2c(O[C@@H]3O[C@H](CO)[C@H](O)[C@H](O)[C@H]3O)ccc(COC(=O)*)c2s1; X4 = O=C(O)c1cc2c(O[C@@H]3O[C@H](CO)[C@H](O)[C@H](O)[C@H]3O)ccc(COC(=O)*)c2o1; Dil(5ξ) = CCC(C)[C@@H]([C@@H](CC(=O)[*:2])OC)N(C)[*:1]; Dolaproine = CO[C@@H]([C@@H]1CCCN1)[C@@H](C)C(=O)O; NMeV = CN[C@H](C(=O)O)C(C)C; ξF = NC(Cc1ccccc1)C(=O)O

Experiments:
[1] = Human plasma stability (Method 2); type: in vitro ADME; details: Method 2 (human plasma), 37° C.; read-out: Plasma stability t1/2
Experimental: Method 2: Human Plasma Stability
(§1) The compounds of the present invention (A-19, A-22, A-25, A-36, A-69) and MPS, used as a standard material, were each dissolved in DMSO and a PBS buffer solution to a concentration of 30 mM, and then mixed in human plasma (Biochemed, 752PR-SC-PMG) to a final concentration of 300 μM (final 1.0% DMSO) and 600 μM of the compounds and MPS, respectively. The reaction of the mixed solution in plasma was initiated in a constant temperature incubator at 37° C. Before the reaction and on certain days after the reaction, the above samples were aliquoted in an amount of 100 μL, and 200 μL of ACN was added to terminate the reaction, mixed, and then vortexed for about 1 minute, and then centrifuged at 4° C. for 15 minutes at 14,000 rpm to precipitate plasma proteins. Each supernatant obtained by centrifugation was collected and quantitatively analyzed using the HPLC method.
(§2) The results of measuring the plasma half-life of the compounds of the present invention using Methods 1 to 4 above are shown in Table 3.

[2] = Mouse plasma stability (Method 1); type: in vitro ADME; details: Method 1 (mouse plasma), 37° C.; read-out: Plasma stability t1/2
Experimental: Method 1: Mouse Plasma Stability
as §1, with “(A-16,” for “(A-19,”, “mouse” for “human”, “029-APSC-PMG)” for “752PR-SC-PMG)”, “acetonitrile (ACN, Sigma, SA-271004-1L)” for “ACN”, “centrifuged (Beckman, B30150)” for “centrifuged”
as §2

[3] = Beagle dog plasma stability (Method 4); type: in vitro ADME; details: Method 4 (beagle dog plasma), 37° C.; read-out: Plasma stability t1/2
Experimental: Method 4: Beagle Dog Plasma Stability
as §1, with “(A-22,” for “(A-19, A-22, A-25, A-36,”, “beagle dog” for “human”, “014-APSC-PMG)” for “752PR-SC-PMG)”
as §2

[4] = Chemical stability in PBS buffer solution (pH 7.4); type: physicochemical; details: 37° C., read-out: Chemical stability t1/2
Experimental: The compounds of the present invention (A-15, A-16, A-19, A-21 to A-25, A-28, A-29, A-36 and A-69) were each dissolved in DMSO to a concentration of 10 mM and then mixed with a PBS buffer solution (pH 7.4) to prepare as a solution having a concentration of 500 μM (5% DMSO). MPS, used as a standard material, was also prepared as a solution having a concentration of 500 μM in a PBS buffer solution. 420 μL of a PBS buffer solution and […] of each of 500 μM compounds of the present invention and MPS were mixed to prepare a total of 700 μL of reaction solution. The reaction of the mixed solution was initiated in a constant temperature incubator at 37° C. The reaction solution was aliquoted in an amount of 70 μL at 0 minutes before the reaction and at certain times after the reaction, and the remaining compounds of the present invention or MPS or the liberated MMAF or MMAE were quantitatively analyzed using the HPLC method. […] In addition, the remaining amount of Compound A-69 in a PBS buffer solution (pH 7.4) according to the incubation time is shown in FIG. 5.

[5] = Rat plasma stability (Method 3); type: in vitro ADME; details: Method 3 (rat plasma), 37° C.; read-out: Plasma stability t1/2
Experimental: Method 3: Rat Plasma Stability
as §1, with “(A-22,” for “(A-19, A-22, A-25, A-36,”, “rat” for “human”, “031-APSC-PMG)” for “752PR-SC-PMG)”
as §2

Row | SMILES | half-life at 300 µM [1] | half-life at 300 µM [2] | half-life at 300 µM [3] | half-life at 100 µM [4] | half-life at 300 µM [5]
1 | CCC(C)[C@@H]([C@@H](CC(=O)N1CCC[C@H]1[C@H](OC)[C@@H](C)C(=O)NC(Cc1ccccc1)C(=O)O)OC)N(C)C(=O)[C@@H](NC(=O)[C@H](C(C)C)N(C)C(=O)OCc1ccc(O[C@@H]2O[C@H](CO)[C@H](O)[C@H](O)[C@H]2O)c2cc(CCCC(=O)O)oc12)C(C)C (some centres unmarked) [Compound A-22] (X1-[NMeV]V[Dil(5ξ)][Dolaproine][ξF]-OH) | > 168 h | > 168 h | > 168 h | > 168 h | > 168 h
2 | C#CCOCCOCCOCCOCC(=O)NCc1cc2c(O[C@@H]3O[C@H](CO)[C@H](O)[C@H](O)[C@H]3O)ccc(COC(=O)N(C)[C@H](C(=O)N[C@H](C(=O)N(C)[C@@H](C(C)CC)[C@@H](CC(=O)N3CCC[C@H]3[C@H](OC)[C@@H](C)C(=O)NC(Cc3ccccc3)C(=O)O)OC)C(C)C)C(C)C)c2s1 (some centres unmarked) [Compound A-21] |  |  |  | > 168 h | 
3 | CC[C@H](C)[C@@H]([C@@H](CC(=O)N1CCC[C@H]1[C@H](OC)[C@@H](C)C(=O)N[C@H](C)[C@@H](O)c1ccccc1)OC)N(C)C(=O)[C@@H](NC(=O)[C@H](C(C)C)N(C)C(=O)OCc1ccc(O[C@@H]2O[C@H](CO)[C@H](O)[C@H](O)[C@H]2O)c2cc(CCC(=O)NCCOCCOCCOCCN=[N+]=[N-])oc12)C(C)C [Compound A-25] | > 168 h | > 168 h |  | > 168 h | 
4 | CCC(C)[C@@H]([C@@H](CC(=O)N1CCC[C@H]1[C@H](OC)[C@@H](C)C(=O)NC(Cc1ccccc1)C(=O)O)OC)N(C)C(=O)[C@@H](NC(=O)[C@H](C(C)C)N(C)C(=O)OCc1ccc(O[C@@H]2O[C@H](CO)[C@H](O)[C@H](O)[C@H]2O)c2cc(C(=O)O)oc12)C(C)C (some centres unmarked) [Compound A-24] (X4-[NMeV]V[Dil(5ξ)][Dolaproine][ξF]-OH) |  |  |  | > 168 h | 
5 | CCC(C)[C@@H]([C@@H](CC(=O)N1CCC[C@H]1[C@H](OC)[C@@H](C)C(=O)NC(Cc1ccccc1)C(=O)O)OC)N(C)C(=O)[C@@H](NC(=O)[C@H](C(C)C)N(C)C(=O)OCc1ccc(O[C@@H]2O[C@H](CO)[C@H](O)[C@H](O)[C@H]2O)c2cc(C(=O)O)[se]c12)C(C)C (some centres unmarked) [Compound A-29] (X3-[NMeV]V[Dil(5ξ)][Dolaproine][ξF]-OH) |  |  |  | > 168 h | 
6 | CCC(C)[C@@H]([C@@H](CC(=O)N1CCC[C@H]1[C@H](OC)[C@@H](C)C(=O)NC(Cc1ccccc1)C(=O)O)OC)N(C)C(=O)[C@@H](NC(=O)[C@H](C(C)C)N(C)C(=O)OCc1ccc(O[C@@H]2O[C@H](CO)[C@H](O)[C@H](O)[C@H]2O)c2cc(CCC(=O)NCCOCCOCCOCCN=[N+]=[N-])sc12)C(C)C (some centres unmarked) [Compound A-15] |  |  |  | > 168 h | 
7 | CCC(C)[C@@H]([C@@H](CC(=O)N1CCC[C@H]1[C@H](OC)[C@@H](C)C(=O)NC(Cc1ccccc1)C(=O)O)OC)N(C)C(=O)[C@@H](NC(=O)[C@H](C(C)C)N(C)C(=O)OCc1ccc(O[C@@H]2O[C@H](CO)[C@H](O)[C@H](O)[C@H]2O)c2cc(Cn3cc(COCCOCCOCCOC)nn3)sc12)C(C)C (some centres unmarked) [Compound A-19] | > 168 h |  |  | > 168 h | 
8 | CCC(C)[C@@H]([C@@H](CC(=O)N1CCC[C@H]1[C@H](OC)[C@@H](C)C(=O)NC(Cc1ccccc1)C(=O)O)OC)N(C)C(=O)[C@@H](NC(=O)[C@H](C(C)C)N(C)C(=O)OCc1ccc(O[C@@H]2O[C@H](CO)[C@H](O)[C@H](O)[C@H]2O)c2cc(CCC(=O)O)sc12)C(C)C (some centres unmarked) [Compound A-16] (X2-[NMeV]V[Dil(5ξ)][Dolaproine][ξF]-OH) |  | > 168 h |  | > 168 h | 
9 | C#CCOCCOCCOCCOCC(=O)NCc1cc2c(O[C@@H]3O[C@H](CO)[C@H](O)[C@H](O)[C@H]3O)ccc(COC(=O)N(C)[C@H](C(=O)N[C@H](C(=O)N(C)[C@@H](C(C)CC)[C@@H](CC(=O)N3CCC[C@H]3[C@H](OC)[C@@H](C)C(=O)NC(Cc3ccccc3)C(=O)O)OC)C(C)C)C(C)C)c2o1 (some centres unmarked) [Compound A-28] |  |  |  | > 168 h | 
10 | CC[C@H](C)[C@@H]([C@@H](CC(=O)N1CCC[C@H]1[C@H](OC)[C@@H](C)C(=O)N[C@H](C)[C@@H](O)c1ccccc1)OC)N(C)C(=O)[C@@H](NC(=O)[C@H](C(C)C)N(C)C(=O)OCc1ccc(O[C@@H]2O[C@H](C(=O)O)[C@@H](O)[C@H](O)[C@H]2O)c2cc(Cn3cc(COCCOCCOCCOC)nn3)[se]c12)C(C)C [Compound A-69] | > 168 h | > 168 h | > 168 h | > 168 h | > 168 h
11 | CCC(C)[C@@H]([C@@H](CC(=O)N1CCC[C@H]1[C@H](OC)[C@@H](C)C(=O)NC(Cc1ccccc1)C(=O)O)OC)N(C)C(=O)[C@@H](NC(=O)[C@H](C(C)C)N(C)C(=O)OCc1ccc(O[C@@H]2O[C@H](CO)[C@H](O)[C@H](O)[C@H]2O)c2cc(CCCC(=O)NCCOCCOCCOCCN=[N+]=[N-])oc12)C(C)C (some centres unmarked) [Compound A-23] |  |  |  | > 168 h | 
